# In patent US9745360B2 (Sanofi, priority 2012, dated 2017):
# Read-outs that look alike come from different tables or passages of the source. *1 amine or outer side, *2 acyl side, *3 side chain or, on linkers, in order; H or OH if unused. Where a SMILES comes first, the peptide text is derived from it. Side-chain parts run from the residue outwards. [ ]: non-standard residue; d: D form. The star is where a group is joined. γGlu = O=C(O)[C@H](CCC(=O)[*:2])N[*:1]; Palmitoyl = CCCCCCCCCCCCCCCC(=O)*; αMeK = C[C@](N)(CCCCN)C(=O)O; Aib = CC(C)(N)C(=O)O
# Tests used:
# [1] = system: female NMRI-mice; assay: Gastric emptying and intestinal passage in female NMRI-mice; format: in vivo
# Description: Female NMRI-mice of a body weight between 20 and 30 g were used. Mice were adapted to housing conditions for at least one week.
# Mice were overnight fasted, while water remained available all the time. On the study day, mice were weighed, single-caged and allowed access to 500 mg of feed for 30 min, while water was removed. At the end of the 30 min feeding period, remaining feed was removed and weighed. Then, the test compound/reference compound or its vehicle in the control group was administered subcutaneously. 60 min later, to allow the compound to reach relevant plasma exposure, a coloured, non-caloric bolus was instilled via gavage into the stomach. After another 30 min, the animals were sacrificed and the stomach and the small intestine prepared. The filled stomach was weighed, emptied, carefully cleaned and dried and reweighed. The stomach content, calculated as weight of filled subtracted by the weight of emptied stomach, indicated the degree of gastric emptying. The small intestine was straightened without force and measured in length. Then the distance from the gastric beginning of the gut to the tip of the farthest travelled intestinal content bolus was measured. The intestinal passage was given as ratio in percent of the latter distance and the total length of the small intestine.
# Statistical analyses were performed with Everstat 6.0 by 1-way-ANOVA, followed by Dunnett's as post-hoc test. Dunnett's Test was applied to compare versus vehicle control. Differences were considered statistically significant at the p<0.05 level.
# Female NMRI-mice, weighing on average 25-30 g, received 1, 10 and 100 μg/kg of SEQ ID NO: 11, or phosphate buffered saline (vehicle control) subcutaneously, 30 min prior to the administration of the coloured bolus. 30 min later, the assessment of stomach contents and intestinal passage was done (FIG. 8).
# [2] = Chemical stability in solution, 7 days at 25° C., % remaining peptide; format: physicochemical; settings: % remaining peptide after 7 days at 25° C.
# Description: The chemical stability is expressed as “% remaining peptide”.
# (§1) Solubility and chemical stability of peptidic compounds were assessed as described in Methods.
# [3] = Pharmacokinetic testing in female Göttinger minipigs, s.c., LC/MS of plasma; format: in vivo; settings: minipig, sc, Mini pigs, 0.1 mg/kg s.c.
# Description: (§2) Pharmacokinetic profiles were determined as described in Methods.
# [4] = Pharmacokinetic testing in mice, s.c., LC/MS of plasma; format: in vivo; settings: mouse, sc, 1 mg/kg s.c.
# Description: Mice were dosed 1 mg/kg subcutaneously (s.c.).
# as §2
# [5] = biological target: T1, human GLP-1 receptor (hGLP-1 R) (Homo sapiens, UniProt P43220); assay: cAMP response (HTRF) of HEK-293 cells stably expressing human GLP-1 receptor; format: cell-based; settings: Table 7; cAMP formation
# T1 construct: expressed in transfected cells
# Description: (§3) cAMP content of cells was determined using a kit from Cisbio Corp. (cat. no. 62AM4PEC) based on HTRF (Homogenous Time Resolved Fluorescence). For preparation, cells were split into T175 culture flasks and grown overnight to near confluency in medium (DMEM/10% FBS). Medium was then removed and cells washed with PBS lacking calcium and magnesium, followed by proteinase treatment with accutase (Sigma-Aldrich cat. no. A6964). Detached cells were washed and resuspended in assay buffer (1×HBSS; 20 mM HEPES, 0.1% BSA, 2 mM IBMX) and cellular density determined. They were then diluted to 400000 cells/ml and 25 μl-aliquots dispensed into the wells of 96-well plates. For measurement, 25 μl of test compound in assay buffer was added to the wells, followed by incubation for 30 minutes at room temperature.
# [6] = biological target: T2, human GIP receptor (hGIP R) (Homo sapiens, UniProt P48546); assay: cAMP response (HTRF) of HEK-293 cells stably expressing human GIP receptor; format: cell-based; settings: Table 7; cAMP formation
# T2 construct: expressed in transfected cells
# T2 sequence (P48546 22-466): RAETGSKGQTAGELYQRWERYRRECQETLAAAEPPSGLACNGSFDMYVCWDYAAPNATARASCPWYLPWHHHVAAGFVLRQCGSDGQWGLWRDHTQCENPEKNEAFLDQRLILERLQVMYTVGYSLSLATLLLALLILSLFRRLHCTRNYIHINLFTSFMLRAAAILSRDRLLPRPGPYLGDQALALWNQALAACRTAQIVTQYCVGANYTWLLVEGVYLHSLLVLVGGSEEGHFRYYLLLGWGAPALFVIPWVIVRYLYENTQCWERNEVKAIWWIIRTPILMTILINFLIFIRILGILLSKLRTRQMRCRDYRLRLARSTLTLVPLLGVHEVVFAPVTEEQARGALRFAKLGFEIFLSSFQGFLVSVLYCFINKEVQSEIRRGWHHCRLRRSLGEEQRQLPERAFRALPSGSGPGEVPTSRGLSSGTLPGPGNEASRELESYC
# Description: as §3
# [7] = Subchronic effect on body weight in female diet-induced obese (DIO) C57BL/6NCrl mice (method 2); format: in vivo; settings: for Overall weight change: 3-week treatment, mean ± SEM; for decrease of body weight, relative change from baseline: 3 weeks
# Description: Female C57BL/6NCrl mice were housed in groups in a specific pathogen-free barrier facility on a 12 h light/dark cycle with free access to water and high-fat diet. After 14 weeks on high-fat diet, mice were stratified to treatment groups (n=8), so that each group had similar mean body weight. An aged-matched group with ad libitum access to standard chow and water was included as standard control group.
# Before the experiment, mice were subcutaneously (s.c.) injected with vehicle solution and weighed for 3 days to acclimate them to the procedures. […] Body weight was recorded daily.
# Statistical analyses were performed with Everstat 6.0 by repeated measures two-way ANOVA and Dunnett's post-hoc analyses (glucose profile) and 1-way-ANOVA, followed by Dunnett's post-hoc test (body weight, body fat). Differences versus vehicle-treated DIO control mice were considered statistically significant at the p<0.05 level.
# Subchronic effects of SEQ ID NO: 11 after subcutaneous treatment on body weight in female diet-induced obese (DIO) C57BL/6NCrl mice (14 weeks of prefeeding with high-rat diet, method 2)
# Female obese C57BL/6NCrl mice were treated for 3 weeks once daily subcutaneously in the late afternoon, prior at the end of the light phase (12 h lights on) with 3 μg/kg and 10 μg/kg SEQ ID NO: 11 or vehicle. Body weight was recorded daily.
# [8] = Solubility testing in buffer, HPLC-UV of supernatant; format: physicochemical; settings: buffer, target concentration 1.0 mg/mL
# Description: as §1
# T1 sequence (P43220 24-463): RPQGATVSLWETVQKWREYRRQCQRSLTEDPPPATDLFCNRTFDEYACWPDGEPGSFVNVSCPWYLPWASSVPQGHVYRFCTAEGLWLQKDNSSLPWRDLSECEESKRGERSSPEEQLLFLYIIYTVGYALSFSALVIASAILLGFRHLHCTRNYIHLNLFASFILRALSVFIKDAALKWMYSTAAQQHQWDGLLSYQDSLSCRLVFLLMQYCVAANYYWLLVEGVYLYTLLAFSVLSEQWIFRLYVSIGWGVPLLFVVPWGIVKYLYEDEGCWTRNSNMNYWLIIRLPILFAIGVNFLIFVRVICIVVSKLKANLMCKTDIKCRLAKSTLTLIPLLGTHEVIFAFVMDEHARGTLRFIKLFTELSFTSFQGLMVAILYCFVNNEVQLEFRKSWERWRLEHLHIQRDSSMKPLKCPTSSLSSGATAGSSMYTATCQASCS
smiles,measurement,setting,value
"CCCCCCCCCCCCCCCC(=O)N[C@@H](CCC(=O)NCCCC[C@H](NC(=O)[C@H](CCC(N)=O)NC(=O)[C@@H](NC(=O)[C@H](CO)NC(=O)[C@H](CC(C)C)NC(=O)[C@H](CC(=O)O)NC(=O)[C@H](CO)NC(=O)[C@@H](NC(=O)[C@H](Cc1ccccc1)NC(=O)[C@@H](NC(=O)CNC(=O)[C@H](CCC(=O)O)NC(=O)C(C)(C)NC(=O)[C@@H](N)Cc1ccc(O)cc1)[C@@H](C)O)[C@@H](C)O)[C@@H](C)CC)C(=O)N[C@@H](CCC(=O)O)C(=O)N[C@@H](CCC(=O)O)C(=O)N[C@@H](CCCNC(=N)N)C(=O)N[C@@H](C)C(=O)N[C@@H](C)C(=O)N[C@@](C)(CCCCN)C(=O)N[C@@H](CCC(=O)O)C(=O)N[C@@H](Cc1ccccc1)C(=O)N[C@H](C(=O)N[C@@H](CCC(=O)O)C(=O)N[C@@H](Cc1c[nH]c2ccccc12)C(=O)N[C@@H](CC(C)C)C(=O)N[C@@H](CCCCN)C(=O)N[C@@H](CC(N)=O)C(=O)N[C@H](C(=O)NCC(=O)N1CCC[C@H]1C(=O)N[C@@H](CO)C(=O)N[C@@H](CO)C(=O)NCC(=O)N[C@@H](C)C(=O)N1CCC[C@H]1C(=O)N1CCC[C@H]1C(=O)N1CCC[C@H]1C(=O)N[C@@H](CO)C(N)=O)[C@@H](C)O)[C@@H](C)CC)C(=O)O [SEQ ID NO: 11, Y-Aib-E-G-T-F-T-S-D-L-S-I-Q-K(γE-x53)-E-E-R-A-A-(S)MeLys-E-F-I-E-W-L-K-N-T-G-P-S-S-G-A-P-P-P-S-NH2] (H-Y[Aib]EGTFTSDLSIQK([γGlu-Palmitoyl])EERAA[αMeK]EFIEWLKNTGPSSGAPPPS-NH2)",increase of remaining gastric contents,[1]; 1 μg/kg s.c.,17%
same,reduction of intestinal passage,[1]; 1 μg/kg s.c.,44%
same,increase of remaining gastric contents,[1]; 10 μg/kg s.c.,97%
same,reduction of intestinal passage,[1]; 10 μg/kg s.c.,68%
same,increase of remaining gastric contents,[1]; 100 μg/kg s.c.,106%
same,reduction of intestinal passage,[1]; 100 μg/kg s.c.,69%
same,Stability (pH 4.5),[2]; pH 4.5,100.0%
same,Stability (pH 7.4),[2]; pH 7.4,99.0%
same,Cmax,[3],302 ng/mL
same,half-life,[3],12.6 h
same,Cmax,[4],5940 ng/mL
same,half-life,[4],4.3 h
same,EC50,[5],5.1 pM
same,EC50,[6],7 pM
same,Overall weight change,[7]; 3 μg/kg s.c. once daily,-3.2 ± 0.6 g
same,"decrease of body weight, relative change from baseline",[7]; 3 μg/kg s.c. once daily,7.6%
same,Overall weight change,[7]; 10 μg/kg s.c. once daily,-6.8 ± 0.7 g
same,"decrease of body weight, relative change from baseline",[7]; 10 μg/kg s.c. once daily,17.4%
same,solubility at 2 h,"[8]; pH 4.5, read-out: Solubility (pH 4.5)",964 µg/mL
same,solubility at 2 h,"[8]; pH 7.4, read-out: Solubility (pH 7.4)",900 µg/mL
